Measurements from PMC5127042, “A polysaccharide utilization locus from Flavobacterium johnsoniae enables conversion of recalcitrant chitin” (Biotechnology for Biofuels, 2016).

Key:
CusDI = molecular target: T1, CusDI (Flavobacterium johnsoniae, UniProt A5FB66); assay: isothermal titration calorimetry; format: binding; settings: 20 mM HEPES, 100 mM NaCl, pH 7.0, 25 °C, one-site model
T1 construct: gene Fjoh_4558; residues 33-526, signal peptide removed, N-terminal His tag removed with TEV, E. coli Rosetta(DE3) pLysS
T1 sequence (A5FB66 33-526): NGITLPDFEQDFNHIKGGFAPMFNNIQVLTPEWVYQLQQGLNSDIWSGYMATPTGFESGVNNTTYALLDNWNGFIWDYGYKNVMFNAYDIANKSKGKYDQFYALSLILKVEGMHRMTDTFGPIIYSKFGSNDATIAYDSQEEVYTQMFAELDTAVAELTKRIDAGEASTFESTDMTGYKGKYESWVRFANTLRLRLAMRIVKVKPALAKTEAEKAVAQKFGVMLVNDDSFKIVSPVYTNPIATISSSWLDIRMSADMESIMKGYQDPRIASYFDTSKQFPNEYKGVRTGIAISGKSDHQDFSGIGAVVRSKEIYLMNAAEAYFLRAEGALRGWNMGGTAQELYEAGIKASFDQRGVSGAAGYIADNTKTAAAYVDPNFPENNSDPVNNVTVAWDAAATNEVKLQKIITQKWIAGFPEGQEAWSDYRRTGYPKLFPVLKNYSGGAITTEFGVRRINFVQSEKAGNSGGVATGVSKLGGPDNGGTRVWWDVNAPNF
From the text: isothermal titration calorimetry on CusDI

CusDII = molecular target: T2, CusDII (Flavobacterium johnsoniae, UniProt A5FB55); assay: isothermal titration calorimetry; format: binding; settings: 20 mM HEPES, 100 mM NaCl, pH 7.0, 25 °C; independent site model
T2 construct: gene Fjoh_4561; residues 26-505 (crystal construct 35-505), signal peptide removed, N-terminal His tag removed with TEV, E. coli Rosetta(DE3) pLysS
T2 sequence (A5FB55 26-505): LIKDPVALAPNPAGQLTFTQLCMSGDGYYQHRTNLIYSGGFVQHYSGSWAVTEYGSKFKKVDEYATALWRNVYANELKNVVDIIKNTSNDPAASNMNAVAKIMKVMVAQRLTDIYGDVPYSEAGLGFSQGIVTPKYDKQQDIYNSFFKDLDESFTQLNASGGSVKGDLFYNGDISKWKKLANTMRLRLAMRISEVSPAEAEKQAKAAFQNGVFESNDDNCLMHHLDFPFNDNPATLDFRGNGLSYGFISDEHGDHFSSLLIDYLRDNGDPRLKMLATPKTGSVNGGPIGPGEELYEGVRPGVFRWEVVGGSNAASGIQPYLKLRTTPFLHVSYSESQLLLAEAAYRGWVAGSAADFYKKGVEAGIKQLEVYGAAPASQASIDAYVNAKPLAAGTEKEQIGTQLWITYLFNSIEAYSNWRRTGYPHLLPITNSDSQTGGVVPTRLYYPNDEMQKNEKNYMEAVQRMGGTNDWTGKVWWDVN
From the text: isothermal titration calorimetry on CusDII

Row | Compound | Kd (CusDI) [µM] | Kd (CusDII) [µM] | also measured
1 | CC(=O)N[C@H]1[C@H](O[C@H]2[C@H](O)[C@@H](NC(C)=O)C(O)O[C@@H]2CO)O[C@H](CO)[C@@H](O)[C@@H]1O (some centres unmarked) [Chitobiose] | 25.6 ± 2.3 | – | –
2 | CC(=O)N[C@H]1[C@H](O[C@H]2[C@H](O)[C@@H](NC(C)=O)[C@H](O[C@H]3[C@H](O)[C@@H](NC(C)=O)C(O)O[C@@H]3CO)O[C@@H]2CO)O[C@H](CO)[C@@H](O[C@@H]2O[C@H](CO)[C@@H](O[C@@H]3O[C@H](CO)[C@@H](O[C@@H]4O[C@H](CO)[C@@H](O)[C@H](O)[C@H]4NC(C)=O)[C@H](O)[C@H]3NC(C)=O)[C@H](O)[C@H]2NC(C)=O)[C@@H]1O (some centres unmarked) [Chitohexaose] | 16.1 ± 0.42 | 41.2 ± 1 | –
3 | CC(=O)N[C@H]1[C@H](O[C@H]2[C@H](O)[C@@H](NC(C)=O)[C@H](O[C@H]3[C@H](O)[C@@H](NC(C)=O)C(O)O[C@@H]3CO)O[C@@H]2CO)O[C@H](CO)[C@@H](O[C@@H]2O[C@H](CO)[C@@H](O[C@@H]3O[C@H](CO)[C@@H](O)[C@H](O)[C@H]3NC(C)=O)[C@H](O)[C@H]2NC(C)=O)[C@@H]1O (some centres unmarked) [Chitopentaose] | 12.8 ± 0.21 | 236 ± 8 | –
4 | CC(=O)N[C@H]1[C@H](O[C@H]2[C@H](O)[C@@H](NC(C)=O)C(O)O[C@@H]2CO)O[C@H](CO)[C@@H](O[C@@H]2O[C@H](CO)[C@@H](O[C@@H]3O[C@H](CO)[C@@H](O)[C@H](O)[C@H]3NC(C)=O)[C@H](O)[C@H]2NC(C)=O)[C@@H]1O (some centres unmarked) [Chitotetraose] | – | – | Kd (CusDI; single titration): 38.3 ± 4.3 µM
5 | CC(=O)N[C@H]1[C@H](O[C@H]2[C@H](O)[C@@H](NC(C)=O)C(O)O[C@@H]2CO)O[C@H](CO)[C@@H](O[C@@H]2O[C@H](CO)[C@@H](O)[C@H](O)[C@H]2NC(C)=O)[C@@H]1O (some centres unmarked) [Chitotriose] | 8.51 ± 0.51 | – | –
6 | CC(=O)N[C@H]1C(O)O[C@H](CO)[C@@H](O)[C@@H]1O (some centres unmarked) [GlcNAc] | – | – | Kd (CusDI; n constrained to 1): 1470 ± 210 µM
